Entries after “also recorded” stand apart in the source; their conditions may differ. Where two headings read alike, the source gives them in different places.
Tests used:
[1] = test system: LC3-II/LC3-I; experiment: LC3 immunoblotting in Huh-7 cells (autophagy); assay type: cell-based
Experimental: The test compound was first solubilized in 100% DMSO as a 50 mM solution, and then diluted 1 to 100 in FBS as a 10× stock solution of 500 μM.
Huh-7 cells were seeded in 10% FBS DMEM overnight. The cells media were replaced with drug diluted 1 to 10 in DMEM (final concentration 50 μm in 10% FBS DMEM). Four hours after the drug addition, cells were lysed in RIPA buffer. Cell lysates were analyzed by immunoblotting with anti-LC3A/B antibodies (Cell signaling 12741). Data were presented as LC3-II/LC3-I ratio compared to vehicle treated samples.
The same experimental procedure detailed in Example 11 was used, except that 2 hours after the drug addition, cells were lysed in RIPA buffer, instead of the previously described 4 hours. Cell lysates were again analyzed by immunoblotting with anti-LC3A/B antibodies (Cell Signaling Technology 12741). Data were presented as LC3-II/LC3-I ratio compared to vehicle treated samples.
This same synergy experiment was repeated in Huh-7 cells after a 4 hour treatment with compound II-2 along with a higher concentration of the individual components (250 μM each of cystamine, EPA or a combination of cystamine and EPA).

[2] = Plasma stability, mouse plasma; assay type: in vitro ADME; settings: 5 μM, 0.5, 1 and 2 hour time points
Experimental: (§1) The in vitro stability of the test compounds was studied in human, mouse, beagle and rat plasma (plasma was purchased from Bioreclamation). Plasma was diluted to 50% with PBS (pH 7.4). Test compounds were dissolved in DMSO to a final concentration of 10 mM and then diluted to 1 mM in MeOH. Incubations were carried at a test compound concentration of 5 μM with a final DMSO concentration of 2.5%. Plasma (198 μL) was added to 96-well plate and incubated at 37° C. for 30 minutes before the addition of […] of the test compound. The resulting mixture was then incubated at 37° C. for 2 hours. At appropriate time intervals (0, 30, 60 and 120 minutes), aliquots (50 μL) were removed and reactions were terminated by adding 200 μL of acetonitrile with an internal standard. Simultaneously, plasma samples containing Benflourex or Procaine (control compound) were terminated by adding 200 μL of acetonitrile internal standard. The sample plate was centrifuged at 3500 rpm for 45 minutes at 4° C. and the supernatant was transferred to a new plate for analysis by LC/MS-MS (Agilent Model No: HPLC: 1200, MS: 6410). […] A binary gradient consisting of 0.1% formic acid in water and 0.1% formic acid in methanol was used for analyte elution.

[3] = Plasma stability, rat plasma; assay type: in vitro ADME; settings: rat plasma, 5 μM, 0.5, 1 and 2 hour time points
Experimental: as §1

[4] = Oral cannulated rat PK study (portal and jugular vein); assay type: in vivo, Sprague Dawley rats; settings: rat, oral; for AUC(0-t) / Cmax: Sprague Dawley
Source text: The compounds of the invention were solubilized in a mixture of excipients consisting 40% Tween, 50% Peceol, 10% PEG400 and diluted with water to form a self-emulsifying aqueous mixture for oral administration to animals. For this study, Sprague Dawley rats that have been surgically implanted with indwelling jugular vein cannula (JVC) and portal vein cannula (PVC) were used (Agilux, Worcester, Mass.). This approach using double-cannulated rats allowed the measurement of the drug concentration that was delivered in the portal vein as well as the drug concentration that was present in the peripheral. For the PK study, serial blood collection was carried out at both the portal and jugular vein at the following time points: 10, 20, 40 min and 1, 2, 4 and 6 hours post dose. The bioanalytical portion of the PK study was carried out using an LC/MS/MS system (Agilent Model No: HPLC: 1200, MS: 6410) and analyzed with the appropriate software (WinNonlin Phoenix 64 6.3.0 395).

[5] = target: ΔF508 CFTR (Homo sapiens, UniProt P13569, DEL508-508); experiment: Ussing chamber short circuit current in Fisher Rat Thyroid epithelial cells overexpressing ΔF508-CFTR; assay type: cell-based; set-up: expressed in transfected cells; host or cells: Fisher Rat Thyroid (FRT) epithelial cells, stably transfected; settings: FRT cells, 10 μM, 4 hours
Experimental: The most prevalent disease causing mutation of the CF transmembrane conductance regulator (CFTR) chloride channel is the deletion of phenylalanine at position 508 in the primary sequence of CFTR (ΔF508-CFTR). This mutation causes a trafficking defect resulting in a severe reduction of ΔF508-CFTR protein at the cell surface. The trafficking defect can be corrected by incubation at low temperature (27° C. overnight) or pharmacologically by small molecules and CFTR correctors. Chloride transport function of Fisher Rat Thyroid (FRT) epithelial cells overexpressing ΔF508-CFTR in monolayers grown on Snapwell™ filter inserts will be monitored as the CFTR agonist evoked short circuit (ISC) current output of an Ussing epithelial voltage clamp apparatus. An objective of this study is to measure the ability of test compounds to restore function to defective ΔF508-CFTR in FRT epithelial cell monolayers.
Measurement of corrector efficacy is divided into two phases. The initial phase is incubation of epithelia with the test compounds for a period of time (that can range from 2 hours to one or two days) in a 37° C. incubator and the second phase is measurement of epithelial ΔF508-CFTR chloride channel current with an epithelial voltage clamp (Ussing assay). The short circuit current (ISC) is measured under short circuit conditions (0 mV transepithelial potential). The ISC magnitude is an index of corrector efficacy and is compared to vehicle and positive control.
Cryopreserved FRT cells stably transfected with ΔF508-CFTR cDNA (Pedemonte et al. (2005) J. CLIN. INVEST., 115, p. 2564-2571) were expanded and plated on Snapwell™ filters for measurement of short circuit current in an Ussing apparatus (Physiologic Instruments, Inc., Sand Diego, Calif.). Cells were grown in Coon's modification of Ham's F-12 media supplemented with zeocin and G-418.
To conduct the assay, a compound of the invention was solubilized as follows: • 1) Prepare 25 mM stock solution in 100% DMSO. • 2) Dilute 12 μL of 25 mM stock solution in 1.20 mL of FBS to make 250 μM intermediate dilution 10× stock (1% DMSO, 99% FBS). Gently vortex all solutions until the solution becomes clear. • 3) Prepare final dilution of 10 μM in 10 mL of Coon's media per well (4 wells×2 mL per well bottom+0.2 mL per insert top=8.8 mL and 1.2 mL reserve for handling losses) by addition of 400 μL of 10× stock and 600 μL of 10× carrier (1% DMSO, 99% FBS) to 9000 μL of Coon's media.
For this example, the test compound was solubilized and added to the appropriate inserts of Ussing chambers (n=4 for each test compound, final test concentration of 10 μM). A DMSO vehicle control and a positive control (VX-809 at 3 μM) were also used. For this particular example, all the test articles, including the positive control, were incubated with the cells for a period of 4 hours. The FRT cell monolayers grown on Snapwell™ filter inserts were transferred to Physiologic Instruments Ussing recording chambers (Physiologic Instruments, Inc., San Diego, Calif.) and superfused with HB-PS on the basolateral side and 78CF-PS on the apical side. One or more 6-channel or 8-channel Physiologic Instruments VCC MC6 or VCC MC8 epithelial voltage clamps were then used in combination to record the short circuit current (ISC) during the entire run. To initiate the ISC measurement, amphotericin (100 μM) was added to the basolateral side of the Snapwell™ filter insert to permeabilize the epithelial cells for 15 min. Forskolin (10 μM), IBMX (100 μM), Genistein (20 μM) and the CFTRinh-172 (20 μM) were added sequentially after the following incubation periods (15 min, 20 min, 10 min, 15 min and 15 min respectively). Data acquisition and analyses were performed using iWorx data acquisition hardware and Labscribe 2 software (iWorx, Dover, N.H.). […]

Chain of ΔF508 CFTR (P13569 with tags, fused parts or gaps DEL508-508): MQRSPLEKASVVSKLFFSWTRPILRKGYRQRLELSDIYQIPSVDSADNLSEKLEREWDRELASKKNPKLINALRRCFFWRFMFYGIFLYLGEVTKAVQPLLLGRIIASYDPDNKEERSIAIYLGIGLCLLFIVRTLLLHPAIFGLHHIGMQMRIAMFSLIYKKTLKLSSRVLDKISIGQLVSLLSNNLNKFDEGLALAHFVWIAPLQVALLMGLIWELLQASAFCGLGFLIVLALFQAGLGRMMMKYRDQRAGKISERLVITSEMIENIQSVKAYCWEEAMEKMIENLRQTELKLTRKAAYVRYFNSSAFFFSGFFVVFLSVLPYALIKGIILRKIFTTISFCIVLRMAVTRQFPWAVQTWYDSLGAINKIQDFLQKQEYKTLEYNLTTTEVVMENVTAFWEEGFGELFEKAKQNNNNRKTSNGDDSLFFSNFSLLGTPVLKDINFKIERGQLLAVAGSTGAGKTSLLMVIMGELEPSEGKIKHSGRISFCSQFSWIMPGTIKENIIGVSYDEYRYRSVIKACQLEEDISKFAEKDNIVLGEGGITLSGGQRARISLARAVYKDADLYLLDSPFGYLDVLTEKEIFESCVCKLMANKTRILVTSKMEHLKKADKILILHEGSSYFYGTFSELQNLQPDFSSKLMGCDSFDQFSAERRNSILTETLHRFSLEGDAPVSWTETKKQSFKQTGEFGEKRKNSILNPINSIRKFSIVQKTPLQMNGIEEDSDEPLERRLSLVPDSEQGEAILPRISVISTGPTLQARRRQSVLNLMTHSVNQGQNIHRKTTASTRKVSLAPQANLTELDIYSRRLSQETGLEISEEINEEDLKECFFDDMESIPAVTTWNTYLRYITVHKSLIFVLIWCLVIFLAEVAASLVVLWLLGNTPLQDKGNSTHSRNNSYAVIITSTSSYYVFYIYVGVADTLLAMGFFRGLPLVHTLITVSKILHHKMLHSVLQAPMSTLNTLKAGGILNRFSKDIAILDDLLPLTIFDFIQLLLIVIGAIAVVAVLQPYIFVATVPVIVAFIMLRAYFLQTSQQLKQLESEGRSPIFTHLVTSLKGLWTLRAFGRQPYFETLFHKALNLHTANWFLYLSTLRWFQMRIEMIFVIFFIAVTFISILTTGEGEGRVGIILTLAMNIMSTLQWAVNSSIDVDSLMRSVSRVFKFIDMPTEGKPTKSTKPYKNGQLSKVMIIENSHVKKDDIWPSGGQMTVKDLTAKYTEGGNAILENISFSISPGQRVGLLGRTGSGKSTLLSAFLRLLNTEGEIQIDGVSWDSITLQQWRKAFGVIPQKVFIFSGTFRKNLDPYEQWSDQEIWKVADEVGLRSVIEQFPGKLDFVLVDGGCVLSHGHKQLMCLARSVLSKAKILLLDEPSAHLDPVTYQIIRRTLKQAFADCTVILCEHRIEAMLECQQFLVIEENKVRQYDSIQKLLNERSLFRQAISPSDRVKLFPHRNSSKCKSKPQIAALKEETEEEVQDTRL

In the case of `CC/C=C\C/C=C\C/C=C\C/C=C\C/C=C\CCCC(=O)NCCSSCCNC(=O)c1cccnc1` [II-2, N-(2-((2-((5Z,8Z,11Z,14Z,17Z)-icosa-5,8,11,14,17-pentaenamido)ethyl)disulfanyl)ethyl)nicotinamide], the “autophagy marker LC3-II (lower band) levels” value ([1]; Huh cells, 25 and 50 μM, 4 hours) is reported as “increase”, the “ratio of LC3-II to LC3-I compared to vehicle control” value ([1]; Huh-7, 50 μM, 2 hours) is reported as “two-fold increase” and the “autophagy marker LC3-II (lower band)” value ([1]; Huh-7, 50 μM, 2 hours, compared with cystamine, EPA or their combination (50 μM each)) is reported as “synergistic increase”. For the same compound, the “activation of autophagy (ratio of LC3-II to LC3-I)” value ([1]; Huh-7, 50 μM, 4 hour treatment) was “synergistic and higher degree of activation of autophagy”, the “ratio of LC3-II to LC3-I” value ([1]; Huh-7 cells, 25 μM, 4 hours) was “increased” and the “plasma stability (parent compound remaining)” value [2] was “unstable”. The “plasma stability (parent compound remaining)” value [3] was “unstable; also recorded: not stable”, the AUC(0-t) ([4]; jugular vein blood (peripheral), systemic circulation (jugular vein), read-out: peripheral AUClast) was 0.443 ± 0.221 ng·h/mL and the Cmax ([4]; jugular vein blood (peripheral), systemic circulation (jugular vein), read-out: peripheral Cmax) was 0.889 ± 0.33 ng/mL. The AUC(0-t) ([4]; portal vein blood, portal vein, read-out: portal AUClast) was 12.5 ± 6.5 ng·h/mL, the Cmax ([4]; portal vein blood, portal vein, read-out: portal Cmax) was 20.8 ± 9.45 ng/mL and the “degradation of the parent compound upon oral dosing” value [4] was “significant amount of the parent compound was degraded”. The peripheral AUClast ([4]; as restated in Example 23) was 0.889 ng·h/mL and the “functional rescue of CFTR (short circuit current vs vehicle)” value [5] was “able to functionally rescue CFTR function”.
